Laboratory results published in paper PMC9084902, “Low-Molecular Weight Protamine Overcomes Chondroitin Sulfate Inhibition of Neural Regeneration” (Frontiers in Cell and Developmental Biology, 2022).
“Also recorded” adds a separate entry of the source.

Assays:
cortical neurons = assay: neurite outgrowth on chondroitinase ABC-treated aggrecan substrate, cortical neurons; format: cell-based, Wistar rat; conditions: ChABC 4 h, 4 µM LMWP in medium, 3 DIV; p = 0.012, unpaired t-test, n = 6; Figure 5B
Experimental: (§1) The cortex or hippocampus were obtained from 17 days-old Wistar rat embryos and transferred to ice-cold preparation solution. Neurons were further isolated exactly as described earlier in Sahu’s publication ([Sahu et al., 2019]). Primary rat cortical or hippocampal neurons (E17 Wistar rats) were cultured in 96-well plates at the density of 20000 cells/well in Neurobasal medium supplemented with B27 serum substitute, penicillin, streptomycin and L-glutamate for 2 days in vitro (DIV). The plates were precoated with aggrecan (5 ug/ml, 150 µl/well). Protamine or protamine peptides were added to the culture medium at different concentrations. To analyze the effect of protamine or its fragment on neurite outgrowth, the plates were coated with 10 μg/ml of protamine or LMWP. For the experiment with chondroitinase, the aggrecan-coated plates were treated with chondroitinase ABC (Amsbio AMS. E1028, lot CF0029) for 4 h followed by 2 times washing with PBS before cell plating, and the cell culture imaging was carried out after 3 DIV incubation with 4 uM LMWP added to the medium. Neurite outgrowth was imaged with phase contrast microscopy (Olympus IX70 microscope and Retiga 2000R digital camera) using both x10 and x20 objectives. […] Neurite length was measured with ImageJ software and averaged from 2 to 3 independent experiments with 1–2 technical replicas in each independent experiment.

hippocampal neurons [1] = assay: cell toxicity seen in neuronal morphology / neuronal cells in vitro; format: cell-based, Wistar rat; conditions: neuronal systems, Figures 2, 4
Experimental: The cortex or hippocampus were obtained from 17 days-old Wistar rat embryos and transferred to ice-cold preparation solution. Neurons were further isolated exactly as described earlier in Sahu’s publication ([Sahu et al., 2019]). Primary rat cortical or hippocampal neurons (E17 Wistar rats) were cultured in 96-well plates at the density of 20000 cells/well in Neurobasal medium supplemented with B27 serum substitute, penicillin, streptomycin and L-glutamate for 2 days in vitro (DIV). The plates were precoated with aggrecan (5 ug/ml, 150 µl/well). Protamine or protamine peptides were added to the culture medium at different concentrations. To analyze the effect of protamine or its fragment on neurite outgrowth, the plates were coated with 10 μg/ml of protamine or LMWP. For the experiment with chondroitinase, the aggrecan-coated plates were treated with chondroitinase ABC (Amsbio AMS. E1028, lot CF0029) for 4 h followed by 2 times washing with PBS before cell plating, and the cell culture imaging was carried out after 3 DIV incubation with 4 uM LMWP added to the medium. Neurite outgrowth was imaged with phase contrast microscopy (Olympus IX70 microscope and Retiga 2000R digital camera) using both x10 and x20 objectives. Processes of neurons over the diameter of the neuronal soma were interpreted as neurites. Neurite length was measured with ImageJ software and averaged from 2 to 3 independent experiments with 1–2 technical replicas in each independent experiment.

[2] = test system: mouse cervical hemisection model; assay: cylinder test, C5 hemisection, ICV delivery; format: in vivo, C57BL6/NHsd mouse; conditions: n = 5–10
Experimental: (§2) The mouse was placed into the glass cylinder of 13 cm in diameter and 15 cm high. A mirror was positioned at the angle behind the cylinder for better observation. The mouse was videotaped for the first 20 exploratory vertical rearings or for 5 min. The number of rearings in which the mouse used the right (impaired), the left or both limbs for support against the wall was measured. Paw preference was calculated as the ratio of total number of left limb use (left + both) to total number of right (impaired) limb use (right + both). A trial with less than 5 rearings within 5 min was excluded from the analysis.

[3] = test system: mouse cervical hemicontusion model; assay: vertical screen (climbing) test, C5 hemicontusion, subcutaneous delivery; format: in vivo, C57BL6/NHsd mouse; conditions: 16 µg s.c. daily 49 days; n = 7–13
Experimental: (§3) The effectiveness of systemically delivered LMWP in treatment of spinal cord trauma was tested in the cervical hemicontusion model (Figure 1B). Baseline behavior was assessed 1 week before the trauma surgery, and the results were used for balanced distribution of animals to the 3 experimental groups (“sham”, “trauma + PBS” and “trauma + LMWP”). Each housing cage contained animals from all three groups. Subcutaneous injections to the back area were started on the next day after the trauma and continued daily for 49 days. LMWP was injected subcutaneously at the 16 µg dose in 200 µl of sterile PBS. The groups “sham” and “trauma + PBS” got the same volume of PBS. Behavioral assessment was started 2 weeks after the trauma and finished at the week 12.
(§4) The mouse was placed on the brink of a horizontal wire screen (25 × 22 cm, diameter of wires 2 mm spaced at 1 cm) faced to edge. Immediately after that the screen was turned vertically to place the mouse to the upside down position at the lower edge. The time that the animal needed to climb to the upper edge was measured during 1 min. If the animal was not able to climb up or fell down from the screen the maximum time 60 s was marked as the climbing time. The average parameter of three subsequent trials repeated with at least 1 min interval was used for data analysis.

[4] = test system: mouse cervical hemicontusion model; assay: frontpaw grip strength, C5 hemicontusion, subcutaneous delivery; format: in vivo, C57BL6/NHsd mouse; conditions: 16 µg s.c. daily 49 days
Experimental: as §3

[5] = test system: mouse cervical hemicontusion model; assay: locomotor activity in open field, C5 hemicontusion, subcutaneous delivery; format: in vivo, C57BL6/NHsd mouse; conditions: 15 min open field, 16 µg s.c. daily 49 days; n = 7–13
Experimental: as §3
To evaluate the locomotor activity the animals were released to the corner of a transparent plexiglas chamber (30 cm × 30 cm, MedAssiociates, St.Albans,VT; illumination about 100lx) for 15 min. The travelled distance and the time spent in vertical activity (exploratory rearings) were analyzed with the Activity Monitor v5.1 software (Med Associates, St. Albans, VT).

[6] = test system: mouse cervical hemisection model; assay: vertical screen test, C5 hemisection, ICV delivery; format: in vivo, C57BL6/NHsd mouse; conditions: n = 5–10
Experimental: as §4

hippocampal neurons [7] = assay: neurite outgrowth on precoated plastic without aggrecan, hippocampal neurons; format: cell-based, Wistar rat; conditions: precoated 10 μg/ml on plastic, no aggrecan, 2 days; about 70 neurons/replicate; p < 0.0001, n = 7
Experimental: as §1

[8] = test system: mouse cervical hemicontusion model; assay: cylinder test, C5 hemicontusion, ICV delivery; format: in vivo, C57BL6/NHsd mouse; conditions: ICV LMWP; weeks 4, 6 and 8; n = 6–11
Experimental: as §2

[9] = cited from earlier work
Description: We therefore tested protamine fragments that might be nontoxic but would still retain the ability to overcome the CSPG inhibition. […] This fragment is found in the literature as the low-molecular weight protamine (LMWP) with the capability to penetrate through the cell membranes and to carry drug cargoes to tissues including ...

[10] = test system: mouse cervical hemicontusion model; assay: vertical screen test, C5 hemicontusion, ICV delivery; format: in vivo, C57BL6/NHsd mouse; conditions: n = 6–11
Experimental: as §4

[11] = ICV LMWP 4 µl of 1 mg/ml daily, 6 days from day 3

## VSRRRRRRGGRRRR [LMWP, low-molecular weight protamine]
Cortical neurons
  effect of CS digestion of aggrecan by chondroitinase ABC on LMWP-induced neurite outgrowth: significantly decreased the neurite outgrowth-promoting effect of LMWP; also recorded: abolished the activity of LMWP to enhance neurite outgrowth
Hippocampal neurons [1]
  toxicity for neuronal cells (summary): little if any toxicity even at high concentrations
[2]; [11]
  front paw use asymmetry (injured versus non-injured side): reduction of front paw use asymmetry at the weeks 2, 4, 8 and 9 after the trauma; also recorded: less asymmetry in frontpaw use when the injured side was compared to the non-injured side
  ipsilateral paw use: partially improved the ipsilateral paw use
[2]; ICV LMWP, week 2 p = 0.4201, week 4 p = 0.2766, week 8 p = 0.1092, week 9 p = 0.1659, PBS group differed from sham at all weeks
  ipsilateral paw use versus sham: not significantly different from the sham animals
[3]
  climbing test recovery versus PBS: tendency for better recovery in the LMWP group compared to the PBS group
[4]; week 6 p = 0.0449, week 9 p = 0.0221, one-way ANOVA with Tukey's
  grip strength versus PBS: significantly increased grip strength parameters on the week 6 and the week 12; also recorded: significant increase of frontpaw grip strength in comparison with the PBS-treated animals on the weeks 6 and 9
[4]; week 12 p = 0.0558, one-way ANOVA with Tukey's
  grip strength versus PBS, week 12: trend towards increased grip strength on the week 12
[5]
  general locomotor activity: did not affect general locomotor activity
[6]; ICV LMWP 4 µl of 1 mg/ml daily, 6 days from day 3, weeks 2-9
  climbing time in vertical screen, time course: progressively reduced the climbing time
[6]; ICV LMWP, week 9, p = 0.0304, Kruskal-Wallis with Dunn's
  climbing time difference versus PBS-treated group: reached a statistically significant level at the week 9 after the trauma
Hippocampal neurons [7]
  total neurite length versus uncoated control: increased the total neurite length as compared to the parallel control cultures
[8]
  ipsilateral front paw use versus sham: reduction in front paw use asymmetry starting from the week 4 after the trauma; also recorded: not significantly different from the sham group on the weeks 4, 6 and 8 after the trauma
[9]
  blood-brain barrier passage: reported to pass the blood-brain barrier
  cell membrane penetration and cargo delivery to tissues including the brain: capability to penetrate through the cell membranes and to carry drug cargoes to tissues including the brain
[9]; ref Byun et al., 2000, He et al., 2014, Edwards et al., 2020
  toxicity relative to protamine: non-toxic substitute of protamine
[10]; [11]
  vertical climbing test, time course: progressive improvement in the vertical climbing test; also recorded: progressively improve the climbing function in the vertical screen test starting from the week 3 after the trauma induction
[10]; ICV LMWP, week 3 p = 0.1508, week 4 p = 0.1311, week 5 p = 0.6967, PBS group differed from sham until week 5
  climbing time versus sham after second post-trauma week: did not reveal a significant difference after the second post-trauma week
